Assay results published in patent US9161951B2, “Parenteral nutrition composition containing iron” (priority 2005, dated 2015).

Legend:
[1] = patients receiving TPN, 87.5-175 mg/week iron i.v., 3 week period; cited from earlier work
[2] = in vivo; cited from earlier work
iron deficiency anemia = details: 15 mg in PN admixture i.v. over 6 hours every day, 3 months
Text: A patient with a history of bowel resection, secondary to inflammatory bowel disease is currently receiving TPN therapy at home. The patient develops iron deficiency anemia, secondary to ongoing bloody diarrhea and malabsorption of iron. The patient is unable to take iron supplements by mouth due to bloating and diarrhea.

[3] = single parenteral nutrition component; cited from earlier work

In the case of iron dextran, the “effect on serum iron levels” value [1] is listed as “effectively raised serum iron levels”.
In the case of `O=P([O-])([O-])OP(=O)([O-])[O-].[Sn+2].[Sn+2]` [stannous pyrophosphate], the reported adverse effects [2] is listed as “cause hypocalcemia and immediate toxic effects”.
With “soluble ferric pyrophosphate [soluble FePPi]” the “correction of iron deficiency anemia” value (iron deficiency anemia) was “effectively corrects iron deficiency anemia”.
For `O=C([O-])CC(O)(CC(=O)O)C(=O)[O-].[Fe+2]` [ferrous citrate], the “duration of compatibility with amino acid solution” value [3] is given as 1 days.
